Experimental data: patent US20140205566A1, “CYCLIC NUCLEUOSIDE DERIVATIVES AND USES THEREOF” (NOVARTIS AG, priority 2012, published 2014)

Columns and labels:
[1] = Stability in liver microsomes; format: in vitro ADME; settings: human, read-out: liver microsomes t1/2
[2] = CCK8 cytotoxicity assay in HepG2 cells; format: cell-based; settings: human, CCK-8
Protocol: HepG2 cells were trypsinized, washed, counted and diluted to 1.6×10^4 cells/ml in DMEM-W/O Glucose, supplemented with 10% Fetal bovine serum (FBS), 1% Penicillin/Streptomycin, 2 mM HEPES, 1 mM Sodium Pyruvate, 10 mM Galactose & 2 mM Glutamine. 25 μl of the media containing 400 cells per well were dispensed in clear 384-well tissue culture plate and incubated at room temperature for 30 minutes. The plate was then transferred and placed at 37° C., 5% CO2 humidified incubator overnight. On the next day, serial-diluted compound plates were prepared and 125 nl of compounds at various concentrations were then dispensed into the tissue culture well (200× dilution). The plates were then transferred to 37° C., 5% CO2 humidified incubator for additional 96 hours. Cytotoxicity was measured by CCK-8 assay. Briefly, CCK-8 was thawed on bench top and diluted 2.5× with the growth media. 35 ul of the pre-diluted CCK-8 was then introduced into each well and the plates were then further incubated in 37° C., 5% CO2 humidified incubator for 3 hours. The absorbance was read by Envision at 450 nm. Dose response curves were calculated as in the previous section. The CC50 is estimated as the concentration of the compound which will inhibit 50% of the signal. A positive control (puromycin) was used to ensure the quality of the data.

[3] = CCK8 cytotoxicity assay in THP-1 cells; format: cell-based; settings: human, CCK-8
Protocol: 4 day cytotoxicity assay using THP-1 cells: THP-1 cells grown in suspension were counted and diluted to 8×10^4 cells/ml in RPMI-1640 media supplemented with 10% fetal bovine serum (FBS) and 1% penicillin/streptomycin. 25 ul of the THP-1 containing media consisting of 2000 cells were dispensed in 384-well tissue culture plate and pre-incubated at room temperature for 30 minutes, followed by 37° C., 5% CO2 overnight in the humidified incubator. On the next day, serial-diluted compound plates were prepared and 125 nl of compounds at various concentrations were then dispensed into the tissue culture well (200× dilution). The plates were then transferred to 37° C., 5% CO2 humidified incubator for additional 96 hours. Cytotoxicity was measured by CCK-8 assay. Briefly, CCK-8 was thawed on bench top and diluted 2.5× with the growth media. 35 ul of the pre-diluted CCK-8 was then introduced into each well and the plates were then further incubated in 37° C., 5% CO2 humidified incubator for 3 hours. The absorbance was read by Envision at 450 nm. Dose response curves were calculated as in the previous section (n=2). The CC50 is estimated as the concentration of the compound which will inhibit 50% of the signal. A positive control (puromycin) was used to ensure the quality of the data.

[4] = Nucleoside triphosphate concentrations in dog PBMC after oral administration; format: in vivo; settings: oral administration of 3 mg/Kg
Protocol: Male beagle dogs were administered a single intravenous (0.5 mg/kg) or oral dose (3-15 mg/kg) of a representative compound of the present invention. Blood samples (3.5 mL) were collected at 0, 0.0833 (IV only), 0.25, 0.5, 1, 2, 4, 6, 8, 24, 48, 72 hours post-dose through the jugular vein. K2EDTA was used as the anticoagulant. Plasma was prepared from an aliquot of 0.5 mL of blood and assayed for the compound and metabolites by tandem mass spectrometric method (LC/MS-MS). PBMC was isolated from 3 mL of blood and assayed for nucleoside triphosphate (NTP) levels by LC/MS-MS.
Three mL of blood was collected from the dog into EDTA vacutainers and mixed on a rocker & immediately placed on ice. The blood was transferred to a 15 mL falcon tube. Three mL PBS (w/o Ca/Mg) and 3 mL 6% dextran (in PBS) were added and was left for 30 minutes on ice to allow the red blood cells to sediment. Blood supernatant (5-7 mL) was layered on top of 5 mL of Mammalian-Lympholyte in 15-mL conical blue-top tube, centrifuged for 20 minutes at 1500 g at 4° C.
After centrifugation, the well-defined lymphocyte (PBMC) layer at the interface was carefully removed to a new 15-mL centrifuge tube and was diluted to a total volume of 15 mL to reduce the density of the solution. The content was centrifuged at 800 g for 10 minutes at 4° C. to pellet the PBMC. The pellet was re-suspended in 1 mL of PBS and further diluted to 10 mL, followed by centrifugation at 800 g for 10 minutes at 4° C. to pellet the PBMC. The pellet was re-suspended in 1 mL PBS and followed by 5 mL ice cold de-ionized water, mixed for 30 seconds by inverting to lyse the remaining red blood cells. Five ml of ice cold 2×PBS was added to bring the mixture back to isotonicity. The mixture was centrifuged at 800 g for 10 minutes at 4° C. to pellet the cells and discard the supernatant. The resulting pellet was re-suspended in 1 mL PBS. An aliquot of 10 μL of the pellet suspension was diluted into 90 μL of PBS for cell count. An aliquot of each sample was transferred to a fresh Eppendorf tubes and centrifuged at 5000 rpm for 5 min at 4° C. The pellets were ready for bioanalysis.
Concentrations of nucleoside triphosphate in PBMC were determined by tandem mass spectrometric method (LC/MS/MS). Chromatography was conducted on ACQUITY UPLC HSS T3 Column, 100 Å, 1.8 μm, 2.1 mm×50 mm using a mobile phase gradient consisting of (A) 2 mM ammonium dihydrogen-phosphate and 5 mM Hexylamine in (B) Acetonitrile, 8% B to 22% B in 3.2 minutes at a flow rate of 0.3 mL/minute. The mass spectrometer was operated in the Multiple Reaction Monitoring (MRM) using negative ionization mode. An internal standard, Carbosynth was used in the construction of standard calibration curves in blank PBMC obtained commercially. The nucleoside triphosphate was monitored at m/z 538.1>158.9 and the internal standard was monitored at 536.1>158.9. The dynamic range was 50, 100, 300, 1000, 3000, 10000, 30000 fmole/3×10^6 PBMC.

SMILES | half-life [1] [min] | CC50 at 96 h [2] [µM] | CC50 at 96 h [3] [µM] | NTP AUC0-24h [4] [fmol/3 million cells] | NTP Cmax [4] [fmol/3 million cells]
CCOC(=O)[C@H](C)N[P@@]1(=O)OC[C@H]2O[C@@H](n3cnc4c(OCC)nc(N)nc43)[C@](C)(F)[C@@H]2O1 [Example 1, (S)-ethyl 2-(((2R,4aR,6R,7R,7aR)-6-(2-amino-6-ethoxy-9H-purin-9-yl)-7-fluoro-7-methyl-2-oxidotetrahydro-4H-furo[3,2-d][1,3,2]dioxaphosphinin-2-yl)amino)propanoate] | 47 | > 50 | > 50 | 36900 ± 11358 | 2331 ± 1181
CCOc1nc(N)nc2c1ncn2[C@@H]1O[C@@H]2CO[P@](=O)(N[C@@H](C)C(=O)OC)O[C@H]2[C@@]1(C)F [Example 3, (S)-methyl 2-(((2R,4aR,6R,7R,7aR)-6-(2-amino-6-ethoxy-9H-purin-9-yl)-7-fluoro-7-methyl-2-oxidotetrahydro-4H-furo[3,2-d][1,3,2]dioxaphosphinin-2-yl)amino)propanoate] | 57 | > 50 | > 50 | 10457 ± 2983 | 662 ± 228
CCOc1nc(N)nc2c1ncn2[C@@H]1O[C@@H]2CO[P@@](=O)(N[C@H](C)C(=O)OC(C)C)O[C@H]2[C@@]1(C)F [Example 6, (R)-isopropyl 2-(((2S,4aR,6R,7R,7aR)-6-(2-amino-6-ethoxy-9H-purin-9-yl)-7-fluoro-7-methyl-2-oxidotetrahydro-4H-furo[3,2-d][1,3,2]dioxaphosphinin-2-yl)amino)propanoate] | – | > 50 | > 50 | 11049 ± 2190 | 777 ± 45.2
CCOc1nc(N)nc2c1ncn2[C@@H]1O[C@@H]2CO[P@@](=O)(N[C@@H](C)C(=O)OC(C)C)O[C@H]2[C@@]1(C)F [Example 2, (S)-isopropyl 2-(((2S,4aR,6R,7R,7aR)-6-(2-amino-6-ethoxy-9H-purin-9-yl)-7-fluoro-7-methyl-2-oxidotetrahydro-4H-furo[3,2-d][1,3,2]dioxaphosphinin-2-yl)amino)propanoate] | 32 | > 50 | 34 | 7218 ± 5117 | 618 ± 308
